Consider two substances from patent publication US20210190799A1, “METHOD FOR DIAGNOSING LIVER DISEASES AND METHOD FOR SCREENING THERAPEUTIC AGENT FOR LIVER DISEASES USING CHANGES IN EXPRESSION OF TM4SF5 PROTEIN” (SEOUL NATIONAL UNIVERSITY R&DB FOUNDATION, priority 2017, published 2021).

One data set has as its system TM4SF5 gene. Nature of the data set: TM4SF5 shRNA in differentiated 3T3-L1 adipocytes (oil red O staining, real-time PCR). Type of data set: cell-based, mouse. The method, then:
To confirm whether the fat production was suppressed when the expression of TM4SF5 protein was suppressed in adipocytes, oil red O staining was performed.
First, mouse 3T3-L1 adipocyte progenitor cells were prepared by culturing in DMEM supplemented with 10% NBCS (Gibco, 16010159) and 1% penicillin/streptomycin. The prepared cells were distributed in a 6-well plate at the density of 1×10^5/well.
After 4 days of the distribution, when the progenitor cells were full in the wells, the cells were further cultured for 48 hours. Then, the medium was replaced with the adipocyte differentiation medium (MDI medium containing 10% FBS) supplemented with 1 μM dexamethasone, 0.5 mM IBMX (3-Isobutyl-1-methylxanthine) and 10 μg/m ? of insulin (Sigma, USA). After culturing the cells for 2 days, the medium was replaced with DMEM supplemented with 10% FBS and 10 μg/m ? of insulin. After replacing with the medium, the cells were cultured for 10 days, and then cultured using DMEM supplemented with 10% FBS and 1% penicillin/streptomycin to obtain differentiated adipocytes. The adipocytes were transfected with TM4SF5 shRNA (shTM4SF5, 5′-[…]-3′, SEQ. ID. NO: 35) using lipofectamine 3000.
Whether the expression of the fat-related gene changed when the expression of TM4SF5 gene was suppressed was confirmed by the following method. […]

The test system of the next data set is TM4SF5 protein. Briefly: shTM4SF5 in hepatocytes of the liver disease model mouse, Western blotting. In kind it is cell-based. The following applies: FIG. 25. From the text: First, hepatocytes were obtained from the isolated liver tissue as described above. The expressions of TM4SF5 and STAT3 proteins in the obtained hepatocytes were suppressed by transfecting the cells with shTM4SF5 or silencing STAT3 [On-Target plus SMART pool siRNA (Thermo)], and then the expression changes of laminin were confirmed by Western blotting as described above.
A general note: Immunoblotting shows a protein as a band on a membrane.

Another data set has as its system STAT3 protein. Nature of the data set: Western blotting of separated liver tissue treated with laminin. Type of data set: cell-based, mouse. The following applies: FIG. 26B. As for the experimental part: Particularly, a lysis buffer [50 mM Tris-HCl (pH 7.4), 1% NP40, 0.25% sodium dioxycholate, 150 mM NaCl, 1 mM EDTA], SDS (sodium dodecyl sulfate), Na3O4V and protease inhibitor cocktail (GenDepot) were added to the obtained liver tissue, which was left at 4° C. for 15 minutes to lyse the tissue. The lysate was centrifuged for 30 minutes under the conditions of 13,000 rpm and 4° C. to obtain a supernatant. The proteins present in the supernatant were quantified using BCA reagent (Thermo Scientifics). 4× sample buffer [4 ml of 100% glycerol, 2.4 ml of Tris-HCl (pH 6.8), 0.8 g of SDS, 4 mg of brominated phenol blue, 0.4 ml of β-mercaptoethanol and 3.1 ml of H2O, final volume: 10 ml] was added thereto, which was boiled at 100° C. for 5 minutes. SDS-PAGE was performed, and the proteins were transferred to a nitrocellulose membrane (Whatman). The membrane was pretreated in a solution containing 5% skim milk for 1 hour, and reacted with the antibodies against laminin (Abcam, UK), ACC1 (Cell Signalling, USA), SREBP1 precursor (Santa cruz, USA), mature SREBP1 (Santa cruz, USA), MTP (Santa cruz, USA), PPARα (Santa cruz, USA), pY^706STAT3 (Millipore, USA), STAT3 (Santa cruz, USA), α-tubulin (Sigma, USA) and TM4SF5 (J Clin Invest. 2008 April; 118(4): 1354-66) as the primary antibodies at 4° C. for 15 hours. […]

For the substance “shTM4SF5: TM4SF5 shRNA, 5′-CCTGGAATGTGACGCTCTTCTCGCTGCTG-3′, SEQ. ID. NO: 35 (listed as DNA, chemistry not fully specified)”, the “production of fat, oil red O staining” value with TM4SF5 gene (FIG. 6A) is “inhibited”. Moreover, the “expressions of Pparγ, CD36, Fasn, Srebp1 and Fabp1 genes” value in the data set on TM4SF5 gene (FIG. 6B) is on record as “suppressed”. In the data set on TM4SF5 protein, the “expression of laminin protein” value is listed as “suppressed”.
For laminin, the “expression level of STAT3 protein” value with STAT3 protein is “not changed”.
